# Values quoted from earlier work in patent publication US20180055935A1, “METHOD FOR THE PRODUCTION OF A FORMULATION OF A HYPERICIN SALT” (Sanochemia Pharmazeutika AG, priority 2015, published 2018).
# Tested on: bladder carcinoma
# Conditions: hypericin 30 μM using polyethylene glycol, 595 nm, 25 up to 50 mW/cm^2
structure (smiles),measurement,value
"Cc1cc(O)c2c(=O)c3c(O)cc(O)c4c5c(O)cc(O)c6c(=O)c7c(O)cc(C)c8c1c2c(c34)c(c78)c65 [hypericin, 1,3,4,6,8,13-hexahydroxy-10, 11-dimethylphenanthro (1,10,9,8-opqra)perylene-7, 14-dione]",tumor cells killed,up to 98%
